Assay results from patent US20040180959A1, “Gabapentin analogues for fibromy algia and concomitant disorders” (priority 2002, published 2004).

Test system: Wistar rats
Test: Water-lick (Vogel) Conflict Test in rats
Format: in vivo
Conditions: for Percent of Animals Tested With >20 Shock Episodes / Mean Shock Episodes (1 mA): pretreatment 120 minutes; for Mean Shock Episodes (1 mA): Mean ± SEM
Procedure: In each experiment, naive adult male Wistar rats between 170 to 200 g were randomly divided into groups (N=10-30/group) and deprived of water for 48 hours prior to testing. Food was available on Day 1 and removed 24 hours prior to test Day 2.
Apparatus: The modular operant test cage (Coulbourn Instruments) measures 10.25×12×12 in. The test chambers feature 3 modular bays on each side of the cage for a total of 6 bays. A module optical lickometer is mounted on one side of the chamber 5 cm above the grid floor. The lickometer is used to measure licking-drinking from a water bottle mounted outside the test chamber. A photo beam is piped via glass rods to the tip of the drink tube across a gap at the end of the tube. The animals tongue breaks the beam on each lick. The front and back of the test chamber is made of clear Plexiglas. The front door is covered to reduce distractions from inside the test room. The back of the test chamber is facing a wall, away from the flow of traffic within the testing room and remains uncovered to provide the opportunity for observations during testing. Shocks are delivered using a (Coulbourn) programmable universal shocker calibrated to deliver a 1 mA shock for 1 second through the drink tube.
Procedure: On Day 1, after a 24-hour water deprivation, experimental subjects were placed into the test chambers and allowed to drink unpunished. Drinking was limited to 500 responses or approximately 5 mL of water during a 10 minute session. Immediately following the unpunished drinking session, rats were returned to their home cages, deprived of water for an additional 24 hours and was food deprived. […] After the pretreatment period rats were placed into a test chamber and allowed to drink for 10 minutes. After every 10 licks, rats received a 1-second shock (1 mA) through the drink tube. Thus, a conflict or anxiety-producing situation exists. Rats are motivated to drink; however, they are inhibited by the shock. Anxiety is reflected by the low amounts of drinking. Standard anxiolytic drugs produce effects that allow rats to overcome this behavioral inhibition and drink despite the shock.
All data were analyzed using a Kruskal-Wallis one Way Analysis of Variance on Ranks and Mann-Whitney Rank Sum Tests.
Quantitative Analysis: A quantitative analysis represents the percentage of subjects within a treatment group that receives >20 shock episodes during a test session. This number provides a quantitative comparison regarding the distribution of the responses.
Compound A was dissolved in water and tested orally as a solution from 0.3 to 100 mg/kg in rats and 3 to 300 mg/kg in mice. Dosages are expressed as the active moiety and were administered in a volume of 1 mL/kg for rats and 10 mL/kg for mice.

[1] = doses 3× and 10× the Vogel MED (10 and 30 mg/kg)
[2] = oral, 2 hour pretreatment, rats

SMILES: C[C@H]1CC(CN)(CC(=O)O)C[C@@H]1C [Compound A, (3S, 4S)-(1-Aminomethyl-3,4-dimethyl-cyclopentyl)-acetic acid]
- Percent of Animals Tested With >20 Shock Episodes (0.3 mg/kg PO): 20%
- Mean Shock Episodes (1 mA) (0.3 mg/kg PO): 16.5 ± 8.7
- Percent of Animals Tested With >20 Shock Episodes (1 mg/kg PO): 10%
- Mean Shock Episodes (1 mA) (1 mg/kg PO): 11.7 ± 4.2
- Percent of Animals Tested With >20 Shock Episodes (3 mg/kg PO): 17%
- Mean Shock Episodes (1 mA) (3 mg/kg PO): 16.7 ± 4.3
- Shock episodes (time-course) (3 mg/kg, 1 hr post treatment): 38.8 ± 12.2
- Shock episodes (time-course) (3 mg/kg, 2 hr post treatment): 55.7 ± 12.7
- Shock episodes (time-course) (3 mg/kg, 4 hr post treatment): 38.4 ± 12.2
- Shock episodes (time-course) (3 mg/kg, 6 hr post treatment): 44.7 ± 13.3
- Shock episodes (time-course) (3 mg/kg, 8 hr post treatment): 7.7 ± 1.2
- Percent of Animals Tested With >20 Shock Episodes (10 mg/kg PO): 43%
- Mean Shock Episodes (1 mA) (10 mg/kg PO): 33.8 ± 6.2
- Shock episodes (time-course) (10 mg/kg, 30 min. post treatment): 14.1 ± 3.1
- Shock episodes (time-course) (10 mg/kg, 1 hr post treatment): 28.2 ± 7.6
- Shock episodes (time-course) (10 mg/kg, 2 hr post treatment): 29.6 ± 8.0
- Shock episodes (time-course) (10 mg/kg, 4 hr post treatment): 47.7 ± 11.7
- Shock episodes (time-course) (10 mg/kg, 6 hr post treatment): 38.4 ± 13.2
- Percent of Animals Tested With >20 Shock Episodes (30 mg/kg PO): 67%
- Mean Shock Episodes (1 mA) (30 mg/kg PO): 46.3 ± 7.6
- Shock episodes (time-course) (30 mg/kg, 30 min. post treatment): 35.8 ± 12.6
- Shock episodes (time-course) (30 mg/kg, 1 hr post treatment): 93.3 ± 12.1
- Shock episodes (time-course) (30 mg/kg, 2 hr post treatment): 88.4 ± 7.4
- Shock episodes (time-course) (30 mg/kg, 4 hr post treatment): 73.5 ± 12.2
- Shock episodes (time-course) (30 mg/kg, 6 hr post treatment): 97.4 ± 11.1
- Percent of Animals Tested With >20 Shock Episodes (100 mg/kg PO): 90%
- Mean Shock Episodes (1 mA) (100 mg/kg PO): 52.8 ± 10.9
- Time of peak activity after treatment (10 and 30 mg/kg respectively): 4 to 6 h
- Activity maintained through (MED dose 3 mg/kg): 6 h
- Onset of activity after treatment (MED dose 3 mg/kg): 2 h
- Time of peak activity (MED dose 3 mg/kg): 2 h
- Activity maintained through [1]: 6 h
- Onset of activity after treatment [1]: 1 h
- Dose of maximal anti-conflict effects [2]: 100 mg/kg
- MED for anti-conflict activity [2]: 3 mg/kg
